Measurements: article PMC5462101 (Future medicinal chemistry, 2015)

What was measured:
soybean lipoxygenase = target: T1, soybean lipoxygenase (Glycine max, UniProt P08170); test: Inhibition of soybean lipoxygenase; format: biochemical; conditions: sodium linoleate 0.1 mM, read-out: Lipoxygenase inhibitory activity (IC50)
T1 construct: purchased Sigma
T1 sequence (P08170 1-839): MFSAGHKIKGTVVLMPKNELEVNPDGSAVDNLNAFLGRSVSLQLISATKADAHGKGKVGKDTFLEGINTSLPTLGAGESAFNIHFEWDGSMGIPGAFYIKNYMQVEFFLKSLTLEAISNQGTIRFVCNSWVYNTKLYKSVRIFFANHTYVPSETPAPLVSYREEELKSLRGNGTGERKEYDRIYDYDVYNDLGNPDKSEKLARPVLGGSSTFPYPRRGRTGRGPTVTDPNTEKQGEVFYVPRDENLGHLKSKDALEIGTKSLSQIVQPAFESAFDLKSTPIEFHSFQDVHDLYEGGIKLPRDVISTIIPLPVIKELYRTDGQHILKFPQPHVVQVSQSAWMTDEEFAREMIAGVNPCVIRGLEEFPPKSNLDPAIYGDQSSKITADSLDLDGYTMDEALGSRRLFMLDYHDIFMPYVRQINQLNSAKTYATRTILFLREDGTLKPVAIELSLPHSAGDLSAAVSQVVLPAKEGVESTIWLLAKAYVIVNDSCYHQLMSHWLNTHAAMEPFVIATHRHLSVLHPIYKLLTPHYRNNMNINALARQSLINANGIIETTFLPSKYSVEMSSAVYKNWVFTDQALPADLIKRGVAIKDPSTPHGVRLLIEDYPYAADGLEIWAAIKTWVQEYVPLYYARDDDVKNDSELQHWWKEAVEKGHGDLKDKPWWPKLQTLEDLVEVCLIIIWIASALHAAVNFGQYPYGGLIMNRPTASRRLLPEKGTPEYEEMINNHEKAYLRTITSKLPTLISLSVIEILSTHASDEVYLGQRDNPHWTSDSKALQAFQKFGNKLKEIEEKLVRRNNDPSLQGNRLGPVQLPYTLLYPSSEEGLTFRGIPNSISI
Protocol: The substituted pteridines prepared were assayed for inhibition of soybean lipoxygenase (Table 1) (Supplementary Information). Many studies have used readily obtainable soybean lipoxygenase, which is a homologue of mammalian lipoxygenase and well examined. The availability of soybean LOX and its well-characterized crystal structure led to its use in this study.
Determination of soybean lipoxygenase inhibition
A solution in DMSO of each compound to be tested was incubated at room temperature with sodium linoleate (0.1 mM) and a solution of soybean lipoxygenase (EC 1.13.11.12) (1:9 x 10^4 w/v in saline, 0.2 mL, Sigma). The conversion of sodium linoleate to 13-hydroperoxylinoleic acid was monitored by observation at 234 nm and compared with the value of appropriate standard inhibitor (Table 1).
IC50 determinations. OriginPro 8 was used to determine IC50 values from the sigmoidal line fitted to a graph of log[concentration] against the average percentage inhibition from two independent experiments, with at least 6 different concentrations. The SEM is the calculated standard error in the IC50 value of the fitted line.

rat model of colitis = test: Acetic acid-induced colitis in the rat; format: in vivo, Fisher 344 rats; conditions: 0.01 mmol/kg intrarectally, 4% acetic acid
Protocol: LOX has also been associated with inflammation and ulcerative colitis. In the present study, a model for colitis involving intracolonic administration of aqueous 4% acetic acid in the rat was used, leading to acute inflammatory reaction. Treated rats presented partial to diffuse petechial bleeding, single erosion and limited ulceration indicating an overall healing effect of the compounds. Substituted pteridines presenting a satisfactory combination of activities 5a, 18a, 18d and 18f were tested using this in vivo model characterized by diffuse exfoliated mucosa as well as multiple and extended erosion and ulcers of the colon (Table 3). No mortality was encountered.
Fisher 344 rats (150-200 g) were housed in wire-mesh cages, given standard laboratory chow and tap water ad libitum and acclimatized for one week before experiments. Rats were randomly assigned to experimental groups. All in vivo experiments conform to the law for the protection of experimental animals (Republic of Greece) and are registered at the Veterinary Administration of the Republic of Greece in accordance with recognized guidelines on animal experimentation including Directive 2010/63/EU.
Induction of colitis
Rats were anesthetized using pentobarbital (50 mg/kg ip) prior to administration with 1 mL of either vehicle (0.9% w/v saline) or the compound under study at doses 0.01mmol/kg intrarectally via a polyethylene cannula (fitted to a 1 mL syringe) with the tip inserted approximately 8 cm into the anus. Following 30 min pretreatment, 1 ml of 4% acetic acid was introduced into the colon intrarectally and, after exposure for 60 s, the excess fluid was withdrawn. The luminal content was then expelled by instillation of air (10 mL), the ligature was removed and the abdomen was sutured. Both groups of rats were allowed to recover with food and water and the resulting injury was assessed after 48 h. The experiment was conducted using two groups, each containing 3 animals.
Assessment of colonic damage. Rats were weighed, inspected for the presence of diarrhea and sacrificed using diethyl ether. The colons were excised and opened longitudinally, rinsed with cold saline, pinned out and observed under a dissecting microscope. Colonic damage was scored using the system of MacPherson and Pfeiffer: 0 – normal appearance, 1- hyperaemia, 2 – patchy petechial bleeding, 3 – diffuse petechial bleeding, 4 – partial exfoliated mucosa or single erosion or ulceration, 5 – diffuse exfoliated mucosa or multiple erosions or ulceration. The presence or absence of adhesions between the colon and the surrounding tissues was recorded. Scoring of the colonic damage (Table 4) was carried out by an observer unaware of the treatment.

[1] = Reducing ability in DPPH assay; conditions: compound 100 μM
Protocol: Previous work has shown that pterins, their dihydro- and their tetrahydro-derivatives can each be antioxidants or pro-oxidants, depending on the particular conditions. In the present study, several assays were used to assess in vitro antioxidant activity in order to obtain representative information; each method involves the generation of a different radical.
Determination of reducing activity using 1,1-diphenyl-2-picrylhydrazyl radical (DPPH)
To a solution of DPPH in absolute ethanol was added an equal volume of the compound to be tested dissolved in DMSO (20 µL). From a stock solution (10 mM) was prepared a final solution of 100 µM for evaluation of the compounds. The absorbance at 517 nm was recorded after 20 and 60 min at room temperature (Table 2).

Question: With `CN1CCN(c2nc(NCc3cccs3)c3nccnc3n2)CC1` [Compound 18f, 2-(4-methylpiperazin-1-yl)-N-(thiophen-2-ylmethyl)pteridin-4-amine] as the molecule, how does the IC50 (soybean lipoxygenase) read?
Answer: Its IC50 is 55 ± 0.8 µM.

Question: And the “Change in body weight (%)” value (rat model of colitis; assessed after 48 h)?
Answer: The value was -10.7%.

Question: And the “Score (levels 0–5)” value (rat model of colitis; colonic damage score, 48 h)?
Answer: The value was “All rats exhibited partial to diffuse exfoliated mucosa or single/multiple erosion or ulceration (4–5)”.

Question: And the “RA (%) 100μM 20 min” value ([1]; 20 min)?
Answer: The value was 6%.

Question: What about the “RA (%) 100μM 60 min” value ([1]; 60 min) of the same molecule?
Answer: The value was 4%.
